For data set [1], the system named is Thielavia terrestris GH61E polypeptide. Kind of data set: Variable pH PASC conversion assay (Examples 29, 30) with Thielavia terrestris GH61E polypeptide. Format: biochemical. The following applies: gallic acid 0.2% w/w + Thielavia terrestris GH61E polypeptide (10 mg/g) + beta-glucosidase (10 mg/g), 72 hours, 50° C.
The target of data set [2] is Aspergillus fumigatus GH61B polypeptide (Aspergillus fumigatus, UniProt Q4WP32). Nature of the data set: Variable pH PASC conversion assay (Examples 29, 30) with Aspergillus fumigatus GH61B polypeptide. Format: biochemical. The note with it: gallic acid 0.2% w/w + Aspergillus fumigatus GH61B polypeptide (10 mg/g) + beta-glucosidase (10 mg/g), 72 hours, 50° C.
In data set [3] the test system is T. terrestris GH61E polypeptide. Kind of data set: Microcrystalline cellulose conversion assay I (Examples 8, 9) with T. terrestris GH61E polypeptide. The note with it: dioxy compound 0.3% w/w + T. terrestris GH61E polypeptide (10 mg/g) + endoglucanase II + beta-glucosidase (5 mg/g each), 96 hours. Format: biochemical, Thielavia terrestris. The procedure:
A 5% microcrystalline cellulose slurry was prepared by addition of 2.5 g of AVICEL®PH101 (Sigma-Aldrich, St. Louis, Mo., USA) to a graduated 50 ml screw-cap conical tube followed by 15 ml of 1 M sodium acetate pH 5 and 1 ml of 100 mM MnSO4 and approximately 20 ml of deionizer water. Each conical tube was then mixed thoroughly by shaking/vortexing, and adjusted to 50 ml total with deionized water and mixed again. Contents of the tube were then quickly transferred to a 100 ml beaker and stirred rapidly with a magnetic stirrer. Five hundred μl aliquots of the 5% AVICEL® slurry were pipetted into wells of a 2.0 ml 96-deepwell plate (Axygen, Union City, Calif., USA) using a 1000 μl micropipette with a wide aperture tip (end of tip cut off about 2 mm from the base). Three hundred μl of either deionized water or a 1% dioxy compound solution (dissolved in deionized water) was added to each well.
The dioxy compounds assayed include caffeic acid (Sigma-Aldrich, St. Louis, Mo., USA), dichlorophenolindophenol (DCPIP; Sigma-Aldrich, St. Louis, Mo., USA), ethyl gallate (Sigma-Aldrich, St. Louis, Mo., USA), gallic acid (Sigma-Aldrich, St. Louis, Mo., USA), 3,4-dihydroxybenzoic acid (Sigma-Aldrich, St. Louis, Mo., USA), pyrocatechol (Sigma-Aldrich, St. Louis, Mo., USA), pyrogallol (Sigma-Aldrich, St. Louis, Mo., USA), sinapinic acid (3,5 dimethoxy-4-hydroxy cinnamic acid; Apin Chemicals LTD, Abingdon, UK), and tannic acid (Sigma-Aldrich, St. Louis, Mo., USA).
Enzyme mixtures were prepared and then added simultaneously to all wells in a volume of 200 μl, for a total of 1 ml in each reaction. […] All experiments reported were performed in triplicate.
After approximately 4 days, the deep-well plate was removed from the incubator and chilled overnight to 4° C. The plate was then mixed well by inversion and briefly centrifuged at 52×g in a SORVALL® RT7 centrifuge (Thermo Fisher Scientific, Waltham, Mass., USA) for 10 seconds. Samples were then mixed by pipetting, and 200 μl from each well were transferred to a MULTISCREEN® HV centrifuge filter plate assembly (Millipore, Bedford, Mass., USA). The centrifuge filter plate assembly was centrifuged at 2000 rpm in a SORVALL® RT7 centrifuge for 20 minutes. […] Sugars were detected using a refractive index detector (Agilent Technologies, Inc., Santa Clara, Calif., USA) with quantification by integration compared to purified sugar standards.
In this assay only glucose was measured since beta-glucosidase was at high levels in all samples but the controls.
A limit digest was performed to determine the total concentration accessible glucose equivalents using 100 mg of T. reesei cellulase (CELLIC™ CTec, Novozymes A/S, Bagsvaerd, Denmark) per gram cellulose, Triplicate data points were averaged and standard deviation was calculated.

Data set [4] has as its target T1, Aspergillus oryzae CEL3A beta-glucosidase (Aspergillus oryzae, UniProt Q2UUD6).
T1 construct: made in house
Nature of the data set: Variable pH PASC conversion assay (Examples 29, 30) without GH61 polypeptide. It counts as biochemical. The note with it: gallic acid 0.2% w/w + Aspergillus oryzae CEL3A beta-glucosidase (10 mg/g), no GH61, 72 hours, 50° C.

Data set [5] concerns the target Trichoderma reesei GH61B polypeptide (Trichoderma reesei, UniProt Q7Z9M7). Nature of the data set: Variable pH PASC conversion assay (Examples 29, 30) with Trichoderma reesei GH61B polypeptide. Format: biochemical. The note with it: gallic acid 0.2% w/w + Trichoderma reesei GH61B polypeptide (10 mg/g) + beta-glucosidase (10 mg/g), 72 hours, 50° C.
Data set [6] addresses T. aurantiacus GH61A polypeptide (Thermoascus aurantiacus, UniProt G3XAP7, N13Y). Kind of data set: Phosphoric acid swollen cellulose (PASC) conversion assay (Examples 20, 21). Format: biochemical. The note with it: 72 hours, 50° C. The procedure:
A 1.0% PASC slurry was prepared as described in Example 17. Ten ml of the 1.0% PASC slurry, 10 ml of H2O, and […] of dioxy compound were thoroughly mixed by shaking,
Five hundred μl aliquots of the 0.50% phosphoric acid swollen cellulose/0.05% dioxy compound slurry were pipetted into wells of a 2.0 ml 96-deepwell plate (Axygen, Union City, Calif., USA) using a 1000 μl micropipette with a wide aperture tip (end of tip cut off about 2 mm from the base). One hundred μl of 10 mM MnSO4-500 mM sodium acetate pH 5 were then added to each well. Two hundred μl of deionized water were added to each well. Enzyme mixtures were prepared and then added simultaneously to all wells in a volume of 200 μl, for a total of 1 ml in each reaction. […] All experiments reported were performed in triplicate.
Primary analysis of the hydrolysis reactions was performed using an AGILENT® 1100 HPLC with CHEMSTATION® software equipped with an AMINEX™ HPX-87H column. After approximately 4 days, the deep-well plate was removed from the incubator and chilled overnight to 4° C. The plate was then mixed well by inversion and briefly centrifuged 52×g in a SORVALL® RT7 centrifuge for 10 seconds. Samples were then mixed by pipetting, and 200 μl from each well were transferred to a MULTISCREEN® HV centrifuge filter plate assembly. The centrifuge filter plate assembly was centrifuged at 2000 rpm in a SORVALL® RT7 centrifuge for 20 minutes. […] Sugars were detected using a refractive index detector with quantification by integration compared to purified sugar standards.
All HPLC data processing was performed using MICROSOFT EXCEL™ software. […] In this assay only glucose was measured since beta-glucosidase was at high levels in all samples but the controls. Percent conversion was calculated using Equation 1. Triplicate data points were averaged and standard deviation was calculated.
The PASC assay was performed as described in Example 20.
Data were collected and analyzed, as described in Example 20, after 72 hours of incubation at 50° C.

Chain of Trichoderma reesei GH61B polypeptide (Q7Z9M7 20-249): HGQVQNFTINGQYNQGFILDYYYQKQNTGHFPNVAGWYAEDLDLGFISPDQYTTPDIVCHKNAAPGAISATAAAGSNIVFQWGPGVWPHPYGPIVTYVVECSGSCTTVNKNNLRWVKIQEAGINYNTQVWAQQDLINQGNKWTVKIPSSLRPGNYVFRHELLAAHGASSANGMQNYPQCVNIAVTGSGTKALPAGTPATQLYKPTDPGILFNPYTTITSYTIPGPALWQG
Chain of Aspergillus fumigatus GH61B polypeptide (Q4WP32 22-250): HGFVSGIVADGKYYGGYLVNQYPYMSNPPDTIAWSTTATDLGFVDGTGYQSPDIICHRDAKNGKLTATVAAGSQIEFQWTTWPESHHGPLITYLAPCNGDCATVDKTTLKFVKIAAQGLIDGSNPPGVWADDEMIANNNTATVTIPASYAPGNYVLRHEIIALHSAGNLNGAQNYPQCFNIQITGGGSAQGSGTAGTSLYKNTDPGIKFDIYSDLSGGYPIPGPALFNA
T1 sequence (Q2UUD6 20-861): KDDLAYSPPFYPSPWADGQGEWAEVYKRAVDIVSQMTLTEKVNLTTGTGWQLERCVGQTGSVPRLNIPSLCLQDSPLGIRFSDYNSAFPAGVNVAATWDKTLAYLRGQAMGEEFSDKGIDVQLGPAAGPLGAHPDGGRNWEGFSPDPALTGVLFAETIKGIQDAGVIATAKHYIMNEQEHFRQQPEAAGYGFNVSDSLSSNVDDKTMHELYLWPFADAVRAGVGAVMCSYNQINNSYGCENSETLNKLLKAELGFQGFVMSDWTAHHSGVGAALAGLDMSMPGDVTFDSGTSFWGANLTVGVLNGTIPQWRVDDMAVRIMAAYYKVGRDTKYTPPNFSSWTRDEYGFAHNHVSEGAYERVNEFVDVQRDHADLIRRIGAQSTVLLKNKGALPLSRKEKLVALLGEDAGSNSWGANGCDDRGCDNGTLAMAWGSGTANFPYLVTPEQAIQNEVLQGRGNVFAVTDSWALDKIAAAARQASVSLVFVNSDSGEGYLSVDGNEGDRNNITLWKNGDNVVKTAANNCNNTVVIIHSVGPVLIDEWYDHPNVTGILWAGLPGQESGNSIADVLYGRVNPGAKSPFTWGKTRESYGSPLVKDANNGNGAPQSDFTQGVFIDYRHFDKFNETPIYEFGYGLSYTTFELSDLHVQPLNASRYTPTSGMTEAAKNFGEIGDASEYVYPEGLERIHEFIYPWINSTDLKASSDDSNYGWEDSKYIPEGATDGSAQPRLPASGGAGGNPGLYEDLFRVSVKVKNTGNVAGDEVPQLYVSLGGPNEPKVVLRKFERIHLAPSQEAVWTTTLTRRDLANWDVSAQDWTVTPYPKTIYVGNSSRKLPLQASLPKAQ

On to `O=C(O)c1cc(O)c(O)c(O)c1` [gallic acid], for which the “conversion of phosphoric acid swollen cellulose” value in data set [1] (pH 4) is listed as 36.3±3.2%; in data set [1] (pH 5) it was 41.7±3.9%; in data set [1] (pH 6), 33.7±0.2%; in data set [1] (pH 7.5), 23.8±3.0%; in data set [2] (pH 4), 21.7±3.0%; in data set [2] (pH 5), 23.8±1.4%. Moreover, the “conversion of phosphoric acid swollen cellulose” value is recorded as 17.3±0.3% in data set [2] (pH 6); 5.6±0.7% in data set [2] (pH 7.5); 1.6±0.2% in data set [4] (pH 4); 2.0±0.7% in data set [4] (pH 5); 1.2±0.5% in data set [4] (pH 6); 1.9±1.2% in data set [4] (pH 7.5). The “conversion of phosphoric acid swollen cellulose” value stood at 13.6±0.2% in data set [5] (pH 4), 15.9±0.6% in data set [5] (pH 5), 12.7±0.4% in data set [5] (pH 6) and 3.9±1.0% in data set [5] (pH 7.5). For the same molecule, the “conversion of microcrystalline cellulose” value in data set [3] (50° C.) is recorded as 9.3±0.1%; in data set [3] (60° C.), 7.9±0.1%.

B1: T. aurantiacus GH61A polypeptide: GH61A polypeptide having cellulolytic enhancing activity (SEQ ID NO: 14), recombinantly produced in Aspergillus oryzae JaL250 (protein, listed as Thermoascus aurantiacus)
chain: MSFSKIIATAGVLASASLVAGHGFVQNIVIDGKYYGGYLVNQYPYMSNPPEVIAWSTTATDLGFVDGTGYQTPDIICHRGAKPGALTAPVSPGGTVELQWTPWPDSHHGPVINYLAPCNGDCSTVDKTQLEFFKIAESGLINDDNPPGIWASDNLIAANNSWTVTIPTTIAPGNYVLRHEIIALHSAQNQDGAQNYPQCINLQVTGGGSDNPAGTLGTALYHDTDPGILINIYQKLSSYIIPGPPLYTG
For the molecule B1, the “conversion of phosphoric acid swollen cellulose” value in data set [6] (T. aurantiacus GH61A polypeptide (20 mg/g) + A. oryzae CEL3A beta-glucosidase (20 mg/g), no dioxy compound) is given as 2.3±0.6%. Besides, the “conversion of PASC” value in data set [6] (T. aurantiacus GH61A polypeptide (20 mg/g) alone) amounted to 1.5±1.1%.
